{
  "source": "ChEMBL document CHEMBL1133240",
  "about": "“Michael adducts of ascorbic acid as inhibitors of protein phosphatase 2A and inducers of apoptosis” (Bioorg Med Chem Lett, 2000)",
  "key": {"[1]": {"experiment": "Compound was evaluated for inhibitory effect against casein dephosphorylation (casein is a substrate of PP-2A) by a HIT cell extract with Okadaic acid (225 nM) or Cantharidic acid (100 uM)", "format": "functional, cell-based, Homo sapiens"}, "[2]": {"experiment": "Lethal dose was evaluated in HIT 100R cells", "format": "toxicity, cell-based", "settings": "human, read-out: LC50 (the source's name)"}, "[3]": {"experiment": "Lethal dose was evaluated in parental HIT cells", "format": "toxicity, cell-based", "settings": "read-out: LC50 (the source's name)"}, "[4]": {"experiment": "Compound was evaluated for inhibitory effect against casein dephosphorylation (casein is a substrate of PP-2A) by a HIT cell extract at 100 uM", "format": "functional", "settings": "Homo sapiens"}, "HIT [5]": {"test_system": "HIT", "experiment": "Compound was evaluated for inhibitory effect against casein dephosphorylation (casein is a substrate of PP-2A) by a HIT cell extract at 1000 uM; Some inhibition", "format": "functional, cell-based", "settings": "Homo sapiens"}, "[6]": {"experiment": "Compound was evaluated for inhibitory effect against casein dephosphorylation (casein is a substrate of PP-2A) by a HIT cell extract relative to cantharidic acid (100 uM)", "format": "functional, cell-based, Homo sapiens"}, "HIT [7]": {"test_system": "HIT", "experiment": "Inhibitory concentration against casein dephosphorylation (casein is a substrate of PP-2A) by a HIT cell extract", "format": "functional, cell-free", "settings": "Homo sapiens"}},
  "data": [
    {"smiles": "CCCCCCCCCCCCCCCC(=O)OC[C@@H](O)[C@H]1OC(=O)[C@]2(O)CCC(O)O[C@]12OC", "note": "(some centres undefined)", "values": [
      {"measurement": "IC50", "setting": "[1]", "value": 175, "unit": "µM"},
      {"measurement": "CC50", "setting": "[2]", "value": 126, "unit": "µM"},
      {"measurement": "CC50", "setting": "[3]", "value": 100, "unit": "µM"},
      {"measurement": "inhibition at 100 µM", "setting": "[4]", "value": 40, "unit": "%"}
    ]},
    {"smiles": "CCCCCCCCCCCCCCCC(=O)OC[C@@H](O)[C@H]1OC(=O)[C@]2(CCC(OC(C)C)O2)C1=O", "note": "(some centres undefined)", "values": [
      {"measurement": "inhibition", "setting": "HIT [5]", "value": "Some inhibition"}
    ]},
    {"smiles": "O=C1O[C@@H]2[C@@H](O)CO[C@]2(O)[C@@]1(O)C(C[N+](=O)[O-])c1ccc(Cl)cc1", "note": "(some centres undefined)", "values": [
      {"measurement": "IC50", "setting": "[6]", "value": 70, "unit": "µM"},
      {"measurement": "CC50", "setting": "[2]", "value": 7.9, "unit": "µM"},
      {"measurement": "CC50", "setting": "[3]", "value": 5.6, "unit": "µM"}
    ]},
    {"smiles": "C=C1[C@@H](O)[C@@H]2O[C@]3(CC[C@H](/C=C/[C@@H](C)[C@@H]4CC(C)=C[C@@]5(O[C@H](C[C@@](C)(O)C(=O)O)CC[C@H]5O)O4)O3)CC[C@H]2O[C@@H]1[C@@H](O)C[C@H](C)[C@H]1O[C@@]2(CCCCO2)CC[C@H]1C", "values": [
      {"measurement": "Concentration", "setting": "HIT [7]", "value": 225, "unit": "nM"}
    ]}
  ]
}
